For this data set, the system named is HEK-CMV-Luc2-Hygro cells. Put plainly: High-throughput genome-wide siRNA screen and validation screen for luciferase expression. The class given is cell-based, human. Particulars: primary screen, 72 h; for per_cell / VIA: Table 3; for per_cell: per cell luciferase yield relative to negative control; for VIA: viable cell density as % of negative control; for Viable cell density (%) / per cell luciferase yield (%): Table 4, negative control = 100%. The procedure: The Silencer Select™ Human genome siRNA library (Ambion), which targets 21,585 human genes with 3 siRNAs per gene, was used for screening. Each siRNA is arrayed in an individual well (Corning 3570, 384 well, white, solid bottom plates). The transfection was done in duplicates: 0.8 pmol of each siRNA was spotted to a well of a 384-well plate (Corning) and 20 μL of serum-free DMEM containing 0.07 μL of Lipofectamine™ RNAiMax (Life Technologies) was then added to each well. This lipid-siRNA mixture was incubated at ambient temperature for 30 min prior to addition of 4000 cells in 20 μL of DMEM containing 20% FBS (Gibco). After incubating the transfected cells at 37° C. in 5% CO2 for 72 hours, 20 μL of ONE-Glo™ Reagent (Promega) was added to one set of replicates for ‘overall luciferase yield’ quantification and 20 μL of CellTiter-Glo™ Reagent (Promega) was added to the second set of replicates for ‘viable cell density’ measurement. All plates were incubated at room temperature for 20 minutes to stabilize the luminescent signal and the signal was then measured with PerkinElmer Envision 2104 Multilabel™ plate reader.
The 56 genes which got targeted by at least two independent siRNAs (out of three) resulting in enhanced luciferase production with MAD-based z-score>3 from the primary screen were subjected to validation screen using 3 additional Silencer™ siRNAs (Ambion) with different sequences from those used in the primary screen. […] The transfection and assay processes were-the same as the primary genome-wide screen. Data visualization was performed in R computational environment (available on the World Wide Web at R-project.org/) by using ‘hexbin’ and ‘ggplot2’ packages.
The screen generated end-point data for ‘overall luciferase yield’ and ‘viable cell density’ in each well. For each plate, the median value of the negative control wells was set as 100% and was used to normalize corresponding sample wells. The ‘overall luciferase yield’ and ‘viable cell density’ were exported as % of negative control and the median absolute deviation (MAD)-based z-score was calculated for each sample.

“71 (GAUUACUUCUUGACUAUCATT; chemistry not given here; listed as Homo sapiens) [compound 71]” yielded a per_cell of 150.8 and a VIA of 123.2.

With “72 (GCUCCUCUGUUACCACAGATT; chemistry not given here; listed as Homo sapiens) [compound 72]”, the per_cell was 179.3 and the VIA was 91.53.

Substance “73 (GUCCGAGUGUGGUUCUGUATT; chemistry not given here; listed as Homo sapiens) [compound 73]” gave a per_cell of 180.4 and a VIA of 85.82.

In turn, “74 (CUUCGACAGUACUUCCGGATT; chemistry not given here; listed as Homo sapiens) [compound 74]” came in with a per_cell of 161.6 and a VIA of 104.

“75 (GCUCAUCGACAUCAAAGUUTT; chemistry not given here; listed as Homo sapiens) [compound 75]” had a per_cell of 170.1 and a VIA of 97.01.

For the substance “76 (CUUUUAAUGUUAAACUACATT; chemistry not given here; listed as Homo sapiens) [compound 76]”, the per_cell is 133.6 and the VIA was determined as 111.

Regarding “77 (CAAUGGAACAAUCAAAGUUTT; chemistry not given here; listed as Homo sapiens) [compound 77]”, the per_cell is on record as 180.8 and the VIA worked out at 89.61.

Regarding “78 (CGGAAUCAAUGAUCCUGUATT; chemistry not given here; listed as Homo sapiens) [compound 78]”, the per_cell was 212.7 and the VIA is on record as 71.39.

The substance “79 (AAGUCAACAUAGCCCGAAATT; chemistry not given here; listed as Homo sapiens) [compound 79]” had a per_cell of 145.7 and a VIA of 111.5.

With “80 (CAAUGAUUCUUACCCUCAATT; chemistry not given here; listed as Homo sapiens) [compound 80]”, the per_cell turned out to be 257.9 and the VIA came to 77.17.

On to “81 (GUUUCAUCUGGGUUCGCUATT; chemistry not given here; listed as Homo sapiens) [compound 81]”, for which the per_cell is listed as 233.6 and the VIA is recorded as 62.66.

Take “82 (GUCCUAUCACCGUAUCUUATT; chemistry not given here; listed as Homo sapiens) [compound 82]”: the per_cell worked out at 266.6 and the VIA is listed as 55.96.

As to “83 (GCGGAAAAGGUAUCCCUCATT; chemistry not given here; listed as Homo sapiens) [compound 83]”, the per_cell came to 184.6 and the VIA was found to be 80.17.

“84 (GGCUGUACAUAGUCCUUUUTT; chemistry not given here; listed as Homo sapiens) [compound 84]” returned a per_cell of 238.5 and a VIA of 66.39.

In the case of “85 (CUGCCGCAACAAUAAGAAATT; chemistry not given here; listed as Homo sapiens) [compound 85]”, the per_cell was determined as 171.2 and the VIA worked out at 82.95.

“86 (CAUUGGUUUUGAUGAGUAUTT; chemistry not given here; listed as Homo sapiens) [compound 86]” registered a per_cell of 226.7 and a VIA of 64.38.

On to “87 (GGUGUAAUAAUGUCCUUUATT; chemistry not given here; listed as Homo sapiens) [compound 87]”, for which the per_cell is on record as 188.1 and the VIA worked out at 79.39.

On to “88 (GAGCAGAGAUCAUAACCAATT; chemistry not given here; listed as Homo sapiens) [compound 88]”, for which the per_cell was found to be 141.1 and the VIA amounted to 108.2.

Regarding “89 (GGAUCACGCAGCUCAAGAUTT; chemistry not given here; listed as Homo sapiens) [compound 89]”, the per_cell is given as 161.6 and the VIA amounted to 91.54.

Take “90 (GGUGCUCUCGGUUGCACAATT; chemistry not given here; listed as Homo sapiens) [compound 90]”: the per_cell is 187.4 and the VIA is given as 82.33.

For the substance “91 (CAGCAAACCUUUGACCAGATT; chemistry not given here; listed as Homo sapiens) [compound 91]”, the per_cell was found to be 277.5 and the VIA stood at 55.4.

Turning to “92 (CCAGUUCGACCUGAACAAATT; chemistry not given here; listed as Homo sapiens) [compound 92]”, the per_cell was found to be 176 and the VIA worked out at 85.75.

Substance “93 (CAGCCUCACCAAGCACAAATT; chemistry not given here; listed as Homo sapiens) [compound 93]” gave a per_cell of 167.4 and a VIA of 85.87.

As for “94 (AGAGGCUACUUUGAAAACATT; chemistry not given here; listed as Homo sapiens) [compound 94]”, the “Viable cell density (%)” value was determined as 66.938% and the “per cell luciferase yield (%)” value came to 227.583%.

On to “95 (CAAGUCACCUGUUACCUCATT; chemistry not given here; listed as Homo sapiens) [compound 95]”, for which the “Viable cell density (%)” value is on record as 88.955% and the “per cell luciferase yield (%)” value is 171.805%.

In the case of “96 (ACACUCUUGUGGUCAAGAATT; chemistry not given here; listed as Homo sapiens) [compound 96]”, the “Viable cell density (%)” value is reported as 73.809% and the “per cell luciferase yield (%)” value was 227.741%.

As for “97 (GAUGAAGAAUGAUAAGUCATT; chemistry not given here; listed as Homo sapiens) [compound 97]”, the “Viable cell density (%)” value was determined as 96.599% and the “per cell luciferase yield (%)” value is reported as 184.201%.

As for “98 (CAACGGGACUAUUAUGAUATT; chemistry not given here; listed as Homo sapiens) [compound 98]”, the “Viable cell density (%)” value amounted to 97.392% and the “per cell luciferase yield (%)” value is listed as 163.496%.

For the substance “99 (CCCGGAUACUUCUGAAGAATT; chemistry not given here; listed as Homo sapiens) [compound 99]”, the “Viable cell density (%)” value was 75.879% and the “per cell luciferase yield (%)” value came out at 227.884%.

Turning to “100 (GAACGAGUACAGCAAUAUATT; chemistry not given here; listed as Homo sapiens) [compound 100]”, the “Viable cell density (%)” value came out at 108.214% and the “per cell luciferase yield (%)” value amounted to 140.868%.

Consider “101 (GUUCAUCCAUAAGUACAUUTT; chemistry not given here; listed as Homo sapiens) [compound 101]”, for which the “Viable cell density (%)” value is on record as 83.129% and the “per cell luciferase yield (%)” value stood at 238.606%.

For “102 (AGAUCUUUGUCAAGGUGUATT; chemistry not given here; listed as Homo sapiens) [compound 102]”, the “Viable cell density (%)” value came to 96.256% and the “per cell luciferase yield (%)” value turned out to be 153.438%.
